Source: patent US11926627B1 (priority 2023, dated 2024)
Values after ≈ are worked out from the molar mass of the structure shown.

Tested on: multidrug-resistant (MDR) strains of Mycobacterium tuberculosis
Assay: microbe, parasite or virus in culture
Format: cell-based
Conditions: 192 h, read-out: Antitubercular activity against Mycobacterium tuberculosis MDR (MIC)

**Q.** How did the MIC turn out when CCOC(=O)c1cc(C(=O)c2ccc(Cl)cc2)n2c1ccc1cc(C)ccc12 [7-METHYL-QUIN3, Ethyl 1-(4-chlorobenzoyl)-7-methylpyrrolo[1,2-α]quinoline-3-carboxylate] was run?
**A.** 4 µg/mL (≈ 10.2 µM)

**Q.** With COC(=O)c1c(C(=O)OC)c2ccc3cc(C)ccc3n2c1C(=O)c1ccc(Cl)cc1 [7-METHYL-QUIN4, Dimethyl 1-(4-chlorobenzoyl)-7-methylpyrrolo[1,2-α]quinoline-2,3-dicarboxylate] as the compound, how does the MIC read?
**A.** 4 µg/mL (≈ 9.18 µM)

**Q.** How did the MIC turn out when COC(=O)c1c(C(=O)OC)c2ccc3cc(C)ccc3n2c1C(=O)c1ccc(Br)cc1 [7-METHYL-QUIN2, Dimethyl 1-(4-bromobenzoyl)-7-methylpyrrolo[1,2-α]quinoline-2,3-dicarboxylate] was run?
**A.** 16 µg/mL (≈ 33.3 µM)

**Q.** Which MIC does the source give for COC(=O)c1c(C(=O)OC)c2ccc3cc(C)ccc3n2c1C(=O)c1ccc(F)cc1 [7-METHYL-QUIN1, Dimethyl 1-(4-fluorobenzoyl)-7-methylpyrrolo[1,2-α]quinoline-2,3-dicarboxylate] here?
**A.** 8 µg/mL (≈ 19.1 µM)
